Reference: patent US20090163567A1 (priority 2005, published 2009)
Read-outs that look alike come from different tables or passages of the source.

Experiments:
[1] = tested on: cucumber downy mildew; test: Test on preventive effect against cucumber downy mildew; type: in vivo, Cucumber (cultivar: Sagamihanshirofushinari)
Procedure: Cucumber (cultivar: Sagamihanshirofushinari) was cultivated in a polyethylene pot having a diameter of 7.5 cm, and when the cucumber reached two-leaf stage, a drug solution having the respective test compounds adjusted to the predetermined concentrations (applied amount: 1000 L/ha), was applied by means of a spray gun. After the applied solution dried, the cucumber was sprayed and inoculated with a suspension of spores of cucumber downy mildew and kept in a humidified chamber at 20° C. for 20 hours. Thereafter, the cucumber was kept in a thermostatic chamber at 20° C. for 7 days, whereupon the lesion area rate was obtained. Here, the lesion area rate is a value obtained in such a manner that lesion area of Downy Mildew of specimen leaves was obtained by visual examination, and its ratio to the total area of specimen leaves is shown by percent.
(§1) The lesion area ratio in non-treated area was obtained in the same manner as in the treated area except that instead of the drug solution, water was applied by means of a spray gun.
(§2) Further, a theoretical value can be calculated by the Colby formula. If the experimental value is lower than the theoretical value by the Colby formula, the fungicidal composition for agricultural or horticultural use of the present invention has a synergistic effect for controlling the plant disease. In this context, the theoretical values by the Colby formula are also shown in brackets ( ) in Tables 1 and 2.

[2] = tested on: Grape Downy Mildew; test: Test on preventive effect against grape downy mildew (leaf disks test); type: in vivo, grapes (cultivar: Neomuscat)
Text: Leaf disks having a diameter of 1 cm were punched out with leaf puncher from leaves of grapes (cultivar: Neomuscat), and a drug solution having the respective test compounds adjusted to the predetermined concentrations (applied amount: 500 L/ha), was applied to the leaf disks by means of an indoor spray equipment. After the applied solution dried, the leaf disks were transferred to petri dishes having a diameter of 3 cm, a suspension of zoosporangium of Grape Downy Mildew was dropwise applied, and the leaf disks were inoculated. They were kept in a chamber at 20° C. for 10 days. Then, the disease severity index of each disk was investigated by the following standards, and the disease severity was obtained by the following formula.
The disease severity in non-treated area was obtained in the same manner as in the treated area except that instead of the drug solution, water was applied by means of an auto sprayer.
Disease outbreak index 0: No sporogenesis is observed.
Disease severity index 1: The sporogenesis area is less than 10% of the drop area.
Disease severity index 2: The sporogenesis area is from 10% to less than 50% of the drop area.
Disease severity index 3: The sporogenesis area is from 50% to less than 90% of the drop area.
Disease severity index 4: The sporogenesis area is at least 90% of the drop area.
Disease severity=[(0×A+1×B+2×C+3×D+4×E)/{4×(A+B+C+D+E)}]×100
where A is the number of disks with disease severity index 0, B is the number of disks with disease severity index 1, C is the number of disks with disease severity index 2, D is the number of disks with disease severity index 3, and E is the number of disks with disease severity index 4.
as §2, with “9” for “1”, “10.” for “2.”

[3] = tested on: tomato late blight; type: in vivo, Tomato (cultivar: Ponderosa); details: Test Example 4 (curative)
[4] = tested on: tomato late blight; type: in vivo, Tomato (cultivar: Ponderosa)
[5] = tested on: cucumber downy mildew; test: Test on curative effect against cucumber downy mildew; type: in vivo, Cucumber (cultivar: Sagamihanshirofushinari)
Procedure: Cucumber (cultivar: Sagamihanshirofushinari) was cultivated in a polyethylene pot having a diameter of 7.5 cm, and when it reached two-leaf stage, the cucumber was sprayed and inoculated with a suspension of spores of cucumber downy mildew and kept in a humidified chamber at 20° C. for 20 hours. Then, after drying the crop plant, a drug solution having the respective test compounds adjusted to the predetermined concentrations, was applied in a sufficient amount (20 ml) by means of a spray gun. After the sprayed solution dried, it was kept in a thermostatic chamber at 20° C. for 5 days, whereupon the lesion area ratio was obtained. The results are shown in is Tables 3 and 4.
as §1
as §2, with “3” for “1”, “4.” for “2.”

COc1ccc(/C(=C\C(=O)N2CCOCC2)c2ccc(F)cc2)cc1OC [Flumorph]
Lesion area ratio in the test on preventive effect against cucumber downy mildew ([1]; Flumorph 12.5 ppm alone): 20% | Disease severity in the test on preventive effect against grape downy mildew ([2]; Flumorph 1.6 ppm alone): 40 | Disease severity in the test on preventive effect against tomato late blight ([3]; Flumorph 50 ppm alone): 100 | Disease severity in the test on preventive effect against tomato late blight ([3]; Flumorph 200 ppm alone): 37 | Disease severity in the test on preventive effect against tomato late blight ([4]; Flumorph 6.3 ppm alone): 100 | Disease severity in the test on preventive effect against tomato late blight ([4]; Flumorph 12.5 ppm alone): 100 | Lesion area ratio in the test on curative effect against cucumber downy mildew ([5]; Flumorph 400 ppm alone): 90%

Cc1ccc(-c2c(Cl)nc(C#N)n2S(=O)(=O)N(C)C)cc1 [Compound No. 1, 4-chloro-2-cyano-1-dimethylsulfamoyl-5-(4-methylphenyl) imidazole]
Lesion area ratio in the test on preventive effect against cucumber downy mildew ([1]; Compound No. 1 0.2 ppm alone): 10% | Disease severity in the test on preventive effect against grape downy mildew ([2]; Compound No. 1 0.098 ppm alone): 100 | Disease severity in the test on preventive effect against grape downy mildew ([2]; Compound No. 1 0.39 ppm alone): 40 | Disease severity in the test on preventive effect against tomato late blight ([3]; Compound No. 1 50 ppm alone): 100 | Disease severity in the test on preventive effect against tomato late blight ([3]; Compound No. 1 400 ppm alone): 94 | Disease severity in the test on preventive effect against tomato late blight ([4]; Compound No. 1 1.6 ppm alone): 19 | Disease severity in the test on preventive effect against tomato late blight ([4]; Compound No. 1 6.3 ppm alone): 12 | Lesion area ratio in the test on curative effect against cucumber downy mildew ([5]; Compound No. 1 50 ppm alone): 100% | Lesion area ratio in the test on curative effect against cucumber downy mildew ([5]; Compound No. 1 200 ppm alone): 100%

COC(=O)[C@@H](C)N(C(=O)Cc1ccccc1)c1c(C)cccc1C [Benalaxyl-M]
Lesion area ratio in the test on preventive effect against cucumber downy mildew ([1]; Benalaxyl-M 25 ppm alone): 100% | Disease severity in the test on preventive effect against grape downy mildew ([2]; Benalaxyl-M 0.024 ppm alone): 100 | Disease severity in the test on preventive effect against tomato late blight ([3]; Benalaxyl-M 50 ppm alone): 94 | Disease severity in the test on preventive effect against tomato late blight ([3]; Benalaxyl-M 200 ppm alone): 75 | Disease severity in the test on preventive effect against tomato late blight ([4]; Benalaxyl-M 25 ppm alone): 100 | Disease severity in the test on preventive effect against tomato late blight ([4]; Benalaxyl-M 100 ppm alone): 100 | Lesion area ratio in the test on curative effect against cucumber downy mildew ([5]; Benalaxyl-M 400 ppm alone): 100%
